The record followed here is article PMC10873978, “Novel tetrahydroisoquinolines as DHFR and CDK2 inhibitors: synthesis, characterization, anticancer activity and antioxidant properties” (BMC Chemistry, 2024).

Test [1] has as its system MCF7 cells. Nature of the test: Cell cycle analysis (propidium iodide flow cytometry), MCF7. It is filed as cell-based, human. How it is done: Then centrifuged the cells and washed twice with ice-cold PBS, and incubated for 20 min at 4 °C. A cell cycle assay was used to assess the cell cycle (Propidium Iodide Flow Cytometry Kit [ab13941]. Then perform statistical analysis for the result by the Cell quest software on the cell fractions in sub-G0/G1, S, and G2/M phases.

Test [2] concerns the target T1, Dihydrofolate Reductase (DHFR) (Homo sapiens, UniProt P00374).
T1 construct: purchased abcam ab283374
T1 sequence (P00374 1-187): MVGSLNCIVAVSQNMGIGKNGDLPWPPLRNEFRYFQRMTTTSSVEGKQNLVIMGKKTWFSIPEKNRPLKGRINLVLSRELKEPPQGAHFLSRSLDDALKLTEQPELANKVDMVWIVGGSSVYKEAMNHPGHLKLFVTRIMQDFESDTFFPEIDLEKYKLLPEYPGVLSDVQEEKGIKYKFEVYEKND
Nature of the test: DHFR inhibitors assay kit (absorbance 340 nm). Format: biochemical. As to conditions: for %inh: DHFR. How it is done:
The DHFR inhibitors assay kit was performed according to abcam (code ab283374); (www.abcam.co.jp).
Firstly, Dilute 2 μL Dihydrofolate Reductase with798 μL DHFR Assay Buffer. Then add 98 μL of diluted Dihydrofolate Reductase into desired well(s) containing the out synthesized 8d compound. Add 40 μL of diluted NADPH to each well containing the test samples. Incubate at room temperature for 10–15 min. Add 60 μL of diluted DHFR substrate to each well containing the test samples vortex briefly and keep on ice. Measure the absorbance immediately at 340 nm. Then calculate the inhibition concentration of 8d compound. The data was analyzed and plot by Graphpad prism software.

Where [3] appears, read: MCF7 cells, compound at IC50, 48 h.

In the case of `CC(=O)c1ccc(NC(=O)c2sc3nc(C)c4c(c3c2N)CC(C)(O)C(C(C)=O)C4c2ccc(N(C)C)cc2)cc1` (stereo not shown) [Compound 8d, 7-Acetyl-N-(4-acetylphenyl)-1-amino-5,8-dimethyl-8-hydroxy-6-(4-N,N-dimethylaminophenyl)-6,7,8,9-tetrahydrothieno[2,3-c]isoquinoline-2-carboxamide], the “phase of cell cycle arrest” value in test [1] (MCF7 cell line) is “S phase”. For the same compound, the “DNA content %G0-G1” value in test [1] (setting [3]) is 52.03%. In test [1] (setting [3]), the “DNA content %G2/M” value is listed as 10.05%. The “DNA content %S” value in test [1] (setting [3]) was 37.92%. Further, the “%inh” value was found to be 27.5% in test [2] (conc 0.01 (log -2)); 38.9% in test [2] (conc 0.1 (log -1)); 67.1% in test [2] (conc 1 (log 0)); 85.7% in test [2] (conc 10 (log 1)); 93% in test [2] (conc 100 (log 2)). Moreover, the IC50 in test [2] (read-out: DHFR inhibition (IC50 ± SD)) came to 199 ± 16 nM.
